Measured values reported in ChEMBL document CHEMBL3734671, “Design and synthesis of an in vivo-efficacious PIM3 kinase inhibitor as a candidate anti-pancreatic cancer agent” (Bioorg Med Chem Lett, 2015).
≈ marks a conversion by molar mass, not a printed value.

Experiments:
[1] = target: Serine/threonine-protein kinase Sgk1 (Homo sapiens) (UniProt O00141); test: Inhibition of SGK (unknown origin) at 200 nM by electrophoretic mobility shift assay
[2] = target: Mitogen-activated protein kinase kinase kinase 9 (Homo sapiens) (UniProt P80192); test: Inhibition of MLK1 (unknown origin) at 200 nM by ELISA
[3] = target: Receptor-type tyrosine-protein kinase FLT3 (Homo sapiens) (UniProt P36888); test: Inhibition of FLT3 (unknown origin) at 200 nM by electrophoretic mobility shift assay
[4] = target: T1, CYP1A2 (Homo sapiens, UniProt P05177); test: Inhibition of CYP1A2 (unknown origin) at 10 uM; format: ADME
T1 sequence (P05177 whole entry): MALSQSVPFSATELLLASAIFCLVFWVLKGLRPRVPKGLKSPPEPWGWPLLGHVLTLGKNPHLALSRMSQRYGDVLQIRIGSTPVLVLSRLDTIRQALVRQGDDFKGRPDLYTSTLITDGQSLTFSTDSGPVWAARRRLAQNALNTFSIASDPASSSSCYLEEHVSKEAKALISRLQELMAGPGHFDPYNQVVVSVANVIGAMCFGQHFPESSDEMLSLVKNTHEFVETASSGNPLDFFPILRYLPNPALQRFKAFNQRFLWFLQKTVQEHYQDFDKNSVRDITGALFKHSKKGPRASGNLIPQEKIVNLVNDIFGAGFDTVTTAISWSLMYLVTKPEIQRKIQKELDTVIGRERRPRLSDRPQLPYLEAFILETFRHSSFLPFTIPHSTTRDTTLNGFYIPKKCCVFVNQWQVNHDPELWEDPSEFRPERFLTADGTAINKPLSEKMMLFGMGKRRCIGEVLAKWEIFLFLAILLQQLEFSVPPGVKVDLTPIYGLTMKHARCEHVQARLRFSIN

[5] = target: CYP2C9 (Homo sapiens, UniProt P11712); test: Inhibition of CYP2C9 (unknown origin) at 10 uM; format: ADME
[6] = target: CYP2C19 (Homo sapiens, UniProt P33261); test: Inhibition of CYP2C19 (unknown origin) at 10 uM; format: ADME
[7] = Aqueous solubility in PBS buffer solution at pH 7.4; format: physicochemical
[8] = target: Tyrosine-protein kinase ABL1 (Homo sapiens) (UniProt P00519); test: Inhibition of ABL (unknown origin) at 200 nM by electrophoretic mobility shift assay
[9] = target: Tyrosine-protein kinase CSK (Homo sapiens) (UniProt P41240); test: Inhibition of CSK (unknown origin) at 200 nM by electrophoretic mobility shift assay
[10] = target: Epidermal growth factor receptor (Homo sapiens) (UniProt P00533); test: Inhibition of EGFR (unknown origin) at 200 nM by electrophoretic mobility shift assay
[11] = target: Fibroblast growth factor receptor 1 (Homo sapiens) (UniProt P11362); test: Inhibition of FGFR1 (unknown origin) at 200 nM by electrophoretic mobility shift assay
Chain of Fibroblast growth factor receptor 1 (Homo sapiens) (P11362 22-822 limits assumed): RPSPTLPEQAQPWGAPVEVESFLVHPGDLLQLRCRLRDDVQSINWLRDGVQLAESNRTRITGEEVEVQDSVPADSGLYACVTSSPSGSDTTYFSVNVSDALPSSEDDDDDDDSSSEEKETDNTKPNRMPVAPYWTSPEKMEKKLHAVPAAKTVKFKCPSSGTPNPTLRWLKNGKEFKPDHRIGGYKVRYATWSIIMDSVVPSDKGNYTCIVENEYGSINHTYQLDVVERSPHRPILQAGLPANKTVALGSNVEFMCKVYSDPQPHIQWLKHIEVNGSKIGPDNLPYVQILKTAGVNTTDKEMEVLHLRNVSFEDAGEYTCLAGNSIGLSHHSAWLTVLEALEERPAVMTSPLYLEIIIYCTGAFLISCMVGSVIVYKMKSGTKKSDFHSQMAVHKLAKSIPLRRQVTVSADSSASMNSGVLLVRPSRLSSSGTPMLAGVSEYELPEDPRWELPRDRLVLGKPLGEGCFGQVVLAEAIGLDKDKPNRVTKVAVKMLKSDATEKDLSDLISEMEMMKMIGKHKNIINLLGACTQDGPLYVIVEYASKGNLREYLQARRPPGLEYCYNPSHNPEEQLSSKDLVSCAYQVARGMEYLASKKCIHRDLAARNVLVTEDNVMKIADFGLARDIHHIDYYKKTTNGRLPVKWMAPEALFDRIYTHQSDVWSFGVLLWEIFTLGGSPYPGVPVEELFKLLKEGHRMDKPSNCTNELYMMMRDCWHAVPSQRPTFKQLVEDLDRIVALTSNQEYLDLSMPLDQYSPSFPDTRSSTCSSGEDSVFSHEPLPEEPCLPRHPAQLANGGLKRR

[12] = target: Tyrosine-protein kinase ITK/TSK (Homo sapiens) (UniProt Q08881); test: Inhibition of ITK (unknown origin) at 200 nM by electrophoretic mobility shift assay
[13] = target: Tyrosine-protein kinase JAK3 (Homo sapiens) (UniProt P52333); test: Inhibition of JAK3 (unknown origin) at 200 nM by electrophoretic mobility shift assay
[14] = target: Vascular endothelial growth factor receptor 2 (Homo sapiens) (UniProt P35968); test: Inhibition of KDR (unknown origin) at 200 nM by electrophoretic mobility shift assay
[15] = target: Tyrosine-protein kinase Lck (Homo sapiens) (UniProt P06239); test: Inhibition of LCK (unknown origin) at 200 nM by electrophoretic mobility shift assay
[16] = target: Protein-tyrosine kinase 2-beta (Homo sapiens) (UniProt Q14289); test: Inhibition of PYK2 (unknown origin) at 200 nM by electrophoretic mobility shift assay
[17] = target: Tyrosine-protein kinase SYK (Homo sapiens) (UniProt P43405); test: Inhibition of SYK (unknown origin) at 200 nM by electrophoretic mobility shift assay
[18] = target: Angiopoietin-1 receptor (Homo sapiens) (UniProt Q02763); test: Inhibition of TIE2 (unknown origin) at 200 nM by electrophoretic mobility shift assay
Chain of Angiopoietin-1 receptor (Homo sapiens) (Q02763 whole entry): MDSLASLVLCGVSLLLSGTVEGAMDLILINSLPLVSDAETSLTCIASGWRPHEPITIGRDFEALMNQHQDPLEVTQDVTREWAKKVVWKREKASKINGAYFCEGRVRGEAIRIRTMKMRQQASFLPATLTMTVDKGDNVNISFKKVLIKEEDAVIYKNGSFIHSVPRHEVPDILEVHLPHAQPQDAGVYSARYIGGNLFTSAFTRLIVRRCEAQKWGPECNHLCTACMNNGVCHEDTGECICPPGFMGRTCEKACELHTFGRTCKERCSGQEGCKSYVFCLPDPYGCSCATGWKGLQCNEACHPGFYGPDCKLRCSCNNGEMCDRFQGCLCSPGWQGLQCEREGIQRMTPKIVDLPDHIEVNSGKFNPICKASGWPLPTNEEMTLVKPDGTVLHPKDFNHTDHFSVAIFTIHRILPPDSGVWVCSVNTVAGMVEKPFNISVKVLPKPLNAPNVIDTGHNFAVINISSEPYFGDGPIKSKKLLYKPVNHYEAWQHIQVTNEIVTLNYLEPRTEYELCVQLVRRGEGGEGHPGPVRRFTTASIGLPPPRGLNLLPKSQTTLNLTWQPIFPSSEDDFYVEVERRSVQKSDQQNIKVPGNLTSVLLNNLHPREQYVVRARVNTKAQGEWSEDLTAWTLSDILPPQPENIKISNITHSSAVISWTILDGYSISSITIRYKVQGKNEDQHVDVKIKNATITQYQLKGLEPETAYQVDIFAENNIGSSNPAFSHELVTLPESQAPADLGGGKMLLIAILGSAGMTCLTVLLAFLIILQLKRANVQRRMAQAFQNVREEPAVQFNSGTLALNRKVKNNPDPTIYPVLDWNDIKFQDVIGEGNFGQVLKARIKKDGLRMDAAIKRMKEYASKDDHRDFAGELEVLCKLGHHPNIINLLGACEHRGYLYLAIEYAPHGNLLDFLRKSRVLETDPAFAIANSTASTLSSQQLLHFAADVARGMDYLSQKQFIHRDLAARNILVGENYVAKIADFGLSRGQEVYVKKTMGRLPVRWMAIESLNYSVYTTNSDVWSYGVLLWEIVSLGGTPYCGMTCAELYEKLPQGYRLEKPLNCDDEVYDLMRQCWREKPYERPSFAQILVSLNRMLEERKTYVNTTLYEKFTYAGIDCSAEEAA

[19] = target: High affinity nerve growth factor receptor (Homo sapiens) (UniProt P04629); test: Inhibition of TRKA (unknown origin) at 200 nM by electrophoretic mobility shift assay
Chain of High affinity nerve growth factor receptor (Homo sapiens) (P04629 33-796 limits assumed): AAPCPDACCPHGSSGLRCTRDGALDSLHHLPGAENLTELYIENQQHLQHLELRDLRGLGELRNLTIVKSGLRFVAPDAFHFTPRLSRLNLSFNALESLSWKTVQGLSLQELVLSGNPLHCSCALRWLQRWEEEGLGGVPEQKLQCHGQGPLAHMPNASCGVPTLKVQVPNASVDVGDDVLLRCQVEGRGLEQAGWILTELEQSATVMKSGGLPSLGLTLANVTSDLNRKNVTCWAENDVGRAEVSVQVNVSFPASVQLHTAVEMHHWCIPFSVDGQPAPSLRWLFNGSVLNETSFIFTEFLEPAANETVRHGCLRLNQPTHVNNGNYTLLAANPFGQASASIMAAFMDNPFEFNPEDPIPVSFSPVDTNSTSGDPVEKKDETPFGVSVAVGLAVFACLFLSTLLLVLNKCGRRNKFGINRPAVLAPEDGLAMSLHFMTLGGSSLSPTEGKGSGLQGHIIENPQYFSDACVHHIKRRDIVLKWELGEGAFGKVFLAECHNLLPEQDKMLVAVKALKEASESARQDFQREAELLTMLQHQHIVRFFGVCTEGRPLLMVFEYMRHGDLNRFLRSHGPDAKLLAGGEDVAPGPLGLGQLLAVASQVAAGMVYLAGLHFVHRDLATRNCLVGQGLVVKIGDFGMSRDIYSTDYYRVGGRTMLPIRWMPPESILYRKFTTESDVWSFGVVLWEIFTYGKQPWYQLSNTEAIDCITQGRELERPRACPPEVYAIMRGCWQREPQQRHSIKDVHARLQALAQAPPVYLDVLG

[20] = target: RAC-alpha serine/threonine-protein kinase (Homo sapiens) (UniProt P31749); test: Inhibition of AKT1 (unknown origin) at 200 nM by electrophoretic mobility shift assay
[21] = target: AMP-activated protein kinase, AMPK (Homo sapiens) (UniProt P54646+O43741+P54619+Q9UGJ0+Q9Y478+Q13131+Q9UGI9); test: Inhibition of AMPKalpha1/beta1/gama1 (unknown origin) at 200 nM by electrophoretic mobility shift assay; format: protein-complex assay
[22] = target: Aurora kinase A (Homo sapiens) (UniProt O14965); test: Inhibition of AurA (unknown origin) at 200 nM by electrophoretic mobility shift assay
[23] = target: Calcium/calmodulin-dependent protein kinase type IV (Homo sapiens) (UniProt Q16566); test: Inhibition of CaMK4 (unknown origin) at 200 nM by electrophoretic mobility shift assay
Chain of Calcium/calmodulin-dependent protein kinase type IV (Homo sapiens) (Q16566 whole entry): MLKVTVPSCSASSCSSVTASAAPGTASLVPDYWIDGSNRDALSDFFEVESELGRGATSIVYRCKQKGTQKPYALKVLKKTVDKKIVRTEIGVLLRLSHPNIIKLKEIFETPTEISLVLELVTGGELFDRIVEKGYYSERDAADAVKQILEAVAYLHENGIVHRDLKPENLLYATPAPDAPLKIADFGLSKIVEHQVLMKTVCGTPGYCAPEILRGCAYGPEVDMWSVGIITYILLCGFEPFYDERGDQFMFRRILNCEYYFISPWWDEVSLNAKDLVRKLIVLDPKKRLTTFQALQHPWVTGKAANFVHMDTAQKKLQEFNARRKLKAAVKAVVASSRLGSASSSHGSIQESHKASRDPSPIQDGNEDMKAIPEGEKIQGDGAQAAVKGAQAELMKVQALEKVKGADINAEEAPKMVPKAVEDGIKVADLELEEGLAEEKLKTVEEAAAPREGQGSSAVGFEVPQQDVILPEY

[24] = target: Mitogen-activated protein kinase 1 (Homo sapiens) (UniProt P28482); test: Inhibition of Erk2 (unknown origin) at 200 nM by electrophoretic mobility shift assay
[25] = target: Glycogen synthase kinase-3 beta (Homo sapiens, UniProt P49841); test: Inhibition of GSK3beta (unknown origin) at 200 nM by electrophoretic mobility shift assay
[26] = target: Interleukin-1 receptor-associated kinase 4 (Homo sapiens) (UniProt Q9NWZ3); test: Inhibition of IRAK4 (unknown origin) at 200 nM by electrophoretic mobility shift assay
Chain of Interleukin-1 receptor-associated kinase 4 (Homo sapiens) (Q9NWZ3 whole entry): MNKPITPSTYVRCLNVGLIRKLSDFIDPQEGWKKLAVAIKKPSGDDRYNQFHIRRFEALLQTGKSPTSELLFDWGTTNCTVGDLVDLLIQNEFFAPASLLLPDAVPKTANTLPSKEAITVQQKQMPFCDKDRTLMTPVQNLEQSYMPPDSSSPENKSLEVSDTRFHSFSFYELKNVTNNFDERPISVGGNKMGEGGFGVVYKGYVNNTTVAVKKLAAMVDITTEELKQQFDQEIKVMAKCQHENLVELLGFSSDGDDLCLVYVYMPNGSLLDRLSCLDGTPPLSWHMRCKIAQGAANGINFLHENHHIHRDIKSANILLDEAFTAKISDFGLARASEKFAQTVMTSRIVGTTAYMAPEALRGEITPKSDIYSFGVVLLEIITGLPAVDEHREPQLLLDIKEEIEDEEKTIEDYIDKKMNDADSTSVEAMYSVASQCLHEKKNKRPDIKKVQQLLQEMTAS

[27] = target: Serine/threonine-protein kinase 4 (Homo sapiens) (UniProt Q13043); test: Inhibition of MST1 (unknown origin) at 200 nM by electrophoretic mobility shift assay
Chain of Serine/threonine-protein kinase 4 (Homo sapiens) (Q13043 whole entry): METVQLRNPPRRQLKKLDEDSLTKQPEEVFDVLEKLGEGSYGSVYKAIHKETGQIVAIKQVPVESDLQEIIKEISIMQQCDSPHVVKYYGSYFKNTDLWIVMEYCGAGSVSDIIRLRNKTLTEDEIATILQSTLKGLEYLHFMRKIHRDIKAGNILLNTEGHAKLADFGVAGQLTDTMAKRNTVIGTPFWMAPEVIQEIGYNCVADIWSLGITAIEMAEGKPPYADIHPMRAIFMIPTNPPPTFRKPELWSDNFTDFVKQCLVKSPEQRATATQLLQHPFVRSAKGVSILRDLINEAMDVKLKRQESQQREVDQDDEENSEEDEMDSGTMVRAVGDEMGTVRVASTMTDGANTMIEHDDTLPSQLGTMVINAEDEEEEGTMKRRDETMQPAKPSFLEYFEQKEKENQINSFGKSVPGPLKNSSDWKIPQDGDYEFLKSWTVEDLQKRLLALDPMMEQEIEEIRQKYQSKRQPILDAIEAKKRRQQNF

[28] = species: Homo sapiens; test: Inhibition of p70S6k (unknown origin) at 200 nM by electrophoretic mobility shift assay
[29] = target: Serine/threonine-protein kinase PAK 4 (Homo sapiens) (UniProt O96013); test: Inhibition of PAK4 (unknown origin) at 200 nM by electrophoretic mobility shift assay
[30] = target: Serine/threonine-protein kinase pim-1 (Homo sapiens, UniProt P11309); test: Inhibition of PIM1 (unknown origin) at 200 nM by electrophoretic mobility shift assay
[31] = target: Serine/threonine-protein kinase pim-2 (Homo sapiens, UniProt Q9P1W9); test: Inhibition of PIM2 (unknown origin) at 200 nM by electrophoretic mobility shift assay
[32] = target: Serine/threonine-protein kinase pim-3 (Homo sapiens, UniProt Q86V86); test: Inhibition of PIM3 (unknown origin) at 200 nM by electrophoretic mobility shift assay
[33] = target: cAMP-dependent protein kinase catalytic subunit alpha (Homo sapiens) (UniProt P17612); test: Inhibition of PKACalpha (unknown origin) at 200 nM by electrophoretic mobility shift assay

Chain of Serine/threonine-protein kinase Sgk1 (Homo sapiens) (O00141 whole entry): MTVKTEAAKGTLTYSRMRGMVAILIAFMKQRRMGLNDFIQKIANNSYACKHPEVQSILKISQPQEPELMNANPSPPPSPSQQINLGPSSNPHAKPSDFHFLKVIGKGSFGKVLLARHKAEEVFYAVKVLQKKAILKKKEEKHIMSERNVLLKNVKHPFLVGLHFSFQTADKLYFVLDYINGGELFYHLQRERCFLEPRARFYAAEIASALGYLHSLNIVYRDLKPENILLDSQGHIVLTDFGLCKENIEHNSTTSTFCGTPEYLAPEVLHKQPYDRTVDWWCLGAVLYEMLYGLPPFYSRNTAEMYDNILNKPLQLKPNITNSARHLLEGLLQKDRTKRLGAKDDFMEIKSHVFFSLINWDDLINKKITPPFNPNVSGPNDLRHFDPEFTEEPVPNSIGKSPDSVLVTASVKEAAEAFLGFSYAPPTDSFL

| Structure (SMILES) | inhibition [1] | inhibition [2] | inhibition [3] | inhibition at 10 µM [4] | inhibition at 10 µM [5] | inhibition at 10 µM [6] | solubility [7] | inhibition [8] | inhibition [9] | inhibition [10] | inhibition [11] | inhibition [12] | inhibition [13] | inhibition [14] | inhibition [15] | inhibition [16] | inhibition [17] | inhibition [18] | inhibition [19] | inhibition [20] | other results |
| --- | --- | --- | --- | --- | --- | --- | --- | --- | --- | --- | --- | --- | --- | --- | --- | --- | --- | --- | --- | --- | --- |
| COc1ccc2c(c1CN1CCNCC1)O/C(=C\c1n[nH]c3ncccc13)C2=O | 4.3% | -3.4% | 55.5% | 33% | < 1% | < 1% | 182 µM (≈ 71.2 µg/mL) | -4.1% | -5.8% | -8% | -4% | 3.5% | 1.5% | -5% | -5.2% | -0.4% | -7.5% | 0% | 1.8% | -0.2% | inhibition [21]: 1.3%; inhibition [22]: 5.1%; inhibition [23]: -4.6%; inhibition [24]: 4.9%; inhibition [25]: 76.5%; inhibition [26]: -3.8%; inhibition [27]: -2.3%; inhibition [28]: 66.5%; inhibition [29]: 13%; inhibition [30]: 102%; inhibition [31]: 28.4%; inhibition [32]: 102%; inhibition [33]: 4% |
| COc1ccc2c(c1C(C)N1CCNCC1)O/C(=C\c1n[nH]c3ncccc13)C2=O (stereo unspecified) | 0.6% | -1.8% | 68% | 2% | < 1% | 16% | 558 µM (≈ 226 µg/mL) | 1% | 0.9% | -1% | 3.1% | 2% | 4.4% | 2% | 0.1% | 11.2% | 5.3% | 0.8% | 10.3% | 1.7% | inhibition [21]: 8.6%; inhibition [22]: -0.4%; inhibition [23]: -1.5%; inhibition [24]: 0.2%; inhibition [25]: 95%; inhibition [26]: -0.6%; inhibition [27]: -7.4%; inhibition [28]: 47.3%; inhibition [29]: -6.7%; inhibition [30]: 99.4%; inhibition [31]: 30.2%; inhibition [32]: 99%; inhibition [33]: 18.4% |
